Residues, ends and D or L forms follow the SMILES beside them. No end group written: not given here. *: point of attachment. Tos = Cc1ccc(S(=O)(=O)*)cc1; Bz = O=C(c1ccccc1)*
Key:
[1] = test system: erythrocytes from fresh human blood; conditions: 5% erythrocytes, 1 h at 37° C., relative to 200 μM melittin; for % Haemolysis 50 μM: 50 μM peptide; for % Haemolysis 150 μM: 150 μM peptide; for % Haemolysis 250 μM: 250 μM peptide
Experimental: A description of the methodology used to determine the haemolytic activity is found in Oren et al, Biochemistry, 2000, 39, 6103-6114, and in Raguse et al., J. Am. Chem. Soc., 2002, 124, 12774-12785.
The haemolytic activity of the peptides of the invention was evaluated by determining the release of haemoglobin which is produced on placing in contact a solution of the peptides with a suspension of erythrocytes 5% by volume, from fresh human blood.
The blood was collected aseptically using a Vactainer® K2E system (Belliver, Great Britain) with EDTA and it was stored at 4° C. for a period lower than 2 hours.
The blood was centrifuged at 6000 g for 5 minutes to separate the erythrocytes. There were washed three times with TRIS buffer (10 mM TRIS, 150 mM NaCl, pH 7.2) and they were resuspended in TRIS buffer until obtaining a suspension which contained 10% by volume of erythrocytes.
The peptides were solubilized in TRIS buffer until a final concentration of 100, 300 and 500 μM
The replicas were used for each peptide and concentration.
65 μl of 10% erythrocyte suspension was mixed with 65 μl of the peptide solution in each well of a 96-well plate (Micro-Amp®, Applied Biosystems, USA) (5% by volume of erythrocytes) and the mixture was incubated for 1 h at 37° C. under stirring. In this way, the erythrocyte suspensions were subjected to peptide concentrations of 50, 150 and 250 μM.
Next, the plates were centrifuged at 3500 g during 10 minutes and aliquots were transferred of 80 μl of supernatant to microplates with 100 wells (Bioscreen), which were diluted with 80 μl of milli-Q water.
The degree of haemolysis was determined from the absorbance at 540 nm with a Bioscreen plate reader.
The complete positive haemolysis control was determined in a TRIS buffer solution which contained 200 μM melittin (Sigma-Aldrich, Spain)
The percentage of haemolysis (H) was determined using the following equation: H=100×[Op−Ob)/(Om−Ob)]
Where OP as the optical density measured for a determined peptide concentration, Ob was the optical density of the buffer solution, and Om was the optical density for the positive control with melittin.

[2] = test system: Erwinia amylovora PMV6076; assay: Minimum inhibitory concentration (MIC), microbial growth by optical density; assay type: cell-based; conditions: 48 h incubation at 25° C., TSB medium
Experimental: (§1) Each experiment was performed twice.

[3] = test system: Pseudomonas syringae EPS94; assay: as above; assay type: cell-based; conditions: 48 h incubation at 25° C., TSB medium
Experimental: as §1

[4] = test system: Xanthomonas vesicatori 2133-2; assay: as above; conditions: 48 h incubation at 25° C., TSB medium
Experimental: All the bacteria were stored at a temperature of −80° C. in Luria-Bertani (LB) medium supplemented with 20% glycerine in volume/volume.
In all cases they were resuspended in sterile water to obtain a suspension adjusted to an absorbance of 0.2 to 60 nm, which approximately corresponds to 10^8 colony forming units.
To determine the minimum inhibitory concentration (MIC), the peptides were solubilized in milli-Q sterile water until a final concentration of 1000 μM and they were filtered through a 0.22 μm pore size filter.
Dilutions of the peptides of the invention were made to obtained solutions at the concentrations of 750, 500, 250, 200, 150, 125, 100, 75, 50 and 25 μM.
20 μl of each dilution were mixed with 20 μl of the suspension of the corresponding bacterial indicator, and 160 μl of the TSB (Trypticase Soy Broth) liquid medium until a total volume of 200 μl in each well of a microplate.
Two replicas were carried out for each strain, concentration and peptide under study.
The positive controls contained water instead of peptide, and the negative controls contained the peptides without the bacterial suspension.
The microbial growth was determined automatically by optical density at 600 nm using the Microbiology Analyser Bioscreen C (Labsystems)
The microplates were incubated at 25° C. for 48 hours with stirring for 20 seconds before measuring the absorbance every hour. Each experiment was performed twice.

CC[C@H](C)[C@H](NC(=O)[C@H](CCCCN)NC(=O)[C@H](CCCCN)NC(=O)[C@H](Cc1ccccc1)NC(=O)[C@H](CC(C)C)NC(=O)[C@H](CCCCN)NC(=O)[C@@H](N)Cc1ccccc1)C(=O)N[C@@H](CC(C)C)C(=O)N[C@@H](CCCCN)C(=O)N[C@@H](Cc1ccc(O)cc1)C(=O)N[C@@H](CC(C)C)C(N)=O [BP090]
% Haemolysis 50 μM [1]: 11% | % Haemolysis 150 μM [1]: 57% | % Haemolysis 250 μM [1]: 84% | range of concentrations including the MIC, E. amylovora [2]: 5 to 7.5 µM | range of concentrations including the MIC, P. syringae [3]: 5 to 7.5 µM | range of concentrations including the MIC, X. vesicatoria [4]: 2.5 to 5 µM

CC[C@H](C)[C@H](NC(=O)[C@H](CCCCN)NC(=O)[C@H](CCCCN)NC(=O)[C@H](Cc1ccccc1)NC(=O)[C@H](CC(C)C)NC(=O)[C@H](CCCCN)NC(=O)[C@@H](N)Cc1ccc(O)cc1)C(=O)N[C@@H](CC(C)C)C(=O)N[C@@H](CCCCN)C(=O)N[C@@H](Cc1ccc(O)cc1)C(=O)N[C@@H](CC(C)C)C(N)=O [BP095]
% Haemolysis 50 μM [1]: 7% | % Haemolysis 150 μM [1]: 50% | % Haemolysis 250 μM [1]: 76% | range of concentrations including the MIC, E. amylovora [2]: 5 to 7.5 µM | range of concentrations including the MIC, P. syringae [3]: 5 to 7.5 µM | range of concentrations including the MIC, X. vesicatoria [4]: 2.5 to 5 µM

CC[C@H](C)[C@H](NC(=O)[C@H](CCCCN)NC(=O)[C@H](CCCCN)NC(=O)[C@H](Cc1ccccc1)NC(=O)[C@H](CC(C)C)NC(=O)[C@H](CCCCN)NC(=O)[C@H](Cc1ccc(O)cc1)NS(=O)(=O)c1ccc(C)cc1)C(=O)N[C@@H](CC(C)C)C(=O)N[C@@H](CCCCN)C(=O)N[C@@H](Cc1ccc(O)cc1)C(=O)N[C@@H](CC(C)C)C(N)=O [BP097]
% Haemolysis 50 μM [1]: 83% | % Haemolysis 150 μM [1]: 81% | % Haemolysis 250 μM [1]: 88% | range of concentrations including the MIC, E. amylovora [2]: >7.5 µM | range of concentrations including the MIC, P. syringae [3]: >7.5 µM | range of concentrations including the MIC, X. vesicatoria [4]: <2.5 µM

CC[C@H](C)[C@H](NC(=O)[C@H](CCCCN)NC(=O)[C@H](CCCCN)NC(=O)[C@H](Cc1ccccc1)NC(=O)[C@H](CC(C)C)NC(=O)[C@H](CCCCN)NC(=O)[C@H](CCCCN)NC(C)=O)C(=O)N[C@@H](CC(C)C)C(=O)N[C@@H](CCCCN)C(=O)N[C@@H](Cc1ccc(O)cc1)C(=O)N[C@@H](CC(C)C)C(N)=O [BP101]
% Haemolysis 50 μM [1]: 4% | % Haemolysis 150 μM [1]: 31% | % Haemolysis 250 μM [1]: 62% | range of concentrations including the MIC, E. amylovora [2]: >7.5 µM | range of concentrations including the MIC, P. syringae [3]: 5 to 7.5 µM | range of concentrations including the MIC, X. vesicatoria [4]: 2.5 µM

CC[C@H](C)[C@H](NC(=O)[C@H](CCCCN)NC(=O)[C@H](CCCCN)NC(=O)[C@H](Cc1ccccc1)NC(=O)[C@H](CC(C)C)NC(=O)[C@H](CCCCN)NC(=O)[C@H](CCCCN)NS(=O)(=O)c1ccc(C)cc1)C(=O)N[C@@H](CC(C)C)C(=O)N[C@@H](CCCCN)C(=O)N[C@@H](Cc1ccc(O)cc1)C(=O)N[C@@H](CC(C)C)C(N)=O [BP102]
% Haemolysis 50 μM [1]: 39% | % Haemolysis 150 μM [1]: 79% | % Haemolysis 250 μM [1]: 80% | range of concentrations including the MIC, E. amylovora [2]: 5 to 7.5 µM | range of concentrations including the MIC, P. syringae [3]: 2.5 to 5 µM | range of concentrations including the MIC, X. vesicatoria [4]: <2.5 µM

CC[C@H](C)[C@H](NC(=O)[C@H](CCCCN)NC(=O)[C@H](CCCCN)NC(=O)[C@H](Cc1ccccc1)NC(=O)[C@H](CC(C)C)NC(=O)[C@H](CCCCN)NC(=O)[C@H](CCCCN)NC(=O)c1ccccc1)C(=O)N[C@@H](CC(C)C)C(=O)N[C@@H](CCCCN)C(=O)N[C@@H](Cc1ccc(O)cc1)C(=O)N[C@@H](CC(C)C)C(N)=O [BP103]
% Haemolysis 50 μM [1]: 42% | % Haemolysis 150 μM [1]: 83% | % Haemolysis 250 μM [1]: 80% | range of concentrations including the MIC, E. amylovora [2]: 7.5 µM | range of concentrations including the MIC, P. syringae [3]: 5 to 7.5 µM | range of concentrations including the MIC, X. vesicatoria [4]: <2.5 µM

CC[C@H](C)[C@H](NC(=O)[C@H](CCCCN)NC(=O)[C@H](CCCCN)NC(=O)[C@H](Cc1ccccc1)NC(=O)[C@H](CC(C)C)NC(=O)[C@H](CCCCN)NC(=O)[C@@H](N)CC(C)C)C(=O)N[C@@H](CC(C)C)C(=O)N[C@@H](CCCCN)C(=O)N[C@@H](Cc1ccc(O)cc1)C(=O)N[C@@H](CC(C)C)C(N)=O [BP105]
% Haemolysis 50 μM [1]: 14% | % Haemolysis 150 μM [1]: 91% | % Haemolysis 250 μM [1]: 90% | range of concentrations including the MIC, E. amylovora [2]: 5 µM | range of concentrations including the MIC, P. syringae [3]: 5 to 7.5 µM | range of concentrations including the MIC, X. vesicatoria [4]: 2.5 to 5 µM

CC[C@H](C)[C@H](NC(=O)[C@H](CCCCN)NC(=O)[C@H](CCCCN)NC(=O)[C@H](Cc1ccccc1)NC(=O)[C@H](CC(C)C)NC(=O)[C@H](CCCCN)NC(=O)[C@H](Cc1ccc(O)cc1)NS(=O)(=O)c1ccc(C)cc1)C(=O)N[C@@H](CC(C)C)C(=O)N[C@@H](CCCCN)C(=O)N[C@@H](CCCCN)C(=O)N[C@@H](CC(C)C)C(N)=O [BP121] (Tos-YKLFKKILKKL-NH2)
% Haemolysis 50 μM [1]: 22% | % Haemolysis 150 μM [1]: 81% | % Haemolysis 250 μM [1]: 86% | range of concentrations including the MIC, E. amylovora [2]: >7.5 µM | range of concentrations including the MIC, P. syringae [3]: 2.5 to 5 µM | range of concentrations including the MIC, X. vesicatoria [4]: 2.5 to 5 µM

CC[C@H](C)[C@H](NC(=O)[C@H](CCCCN)NC(=O)[C@H](CCCCN)NC(=O)[C@H](Cc1ccccc1)NC(=O)[C@H](CC(C)C)NC(=O)[C@H](CCCCN)NC(=O)[C@H](Cc1ccc(O)cc1)NC(=O)c1ccccc1)C(=O)N[C@@H](CC(C)C)C(=O)N[C@@H](CCCCN)C(=O)N[C@@H](CCCCN)C(=O)N[C@@H](CC(C)C)C(N)=O [BP122] (Bz-YKLFKKILKKL-NH2)
% Haemolysis 50 μM [1]: 32% | % Haemolysis 150 μM [1]: 78% | % Haemolysis 250 μM [1]: 96% | range of concentrations including the MIC, E. amylovora [2]: >7.5 µM | range of concentrations including the MIC, P. syringae [3]: 5 to 7.5 µM | range of concentrations including the MIC, X. vesicatoria [4]: 2.5 to 5 µM

Ac-WKLFKKILKWL-NH2 [BP038]
% Haemolysis 50 μM [1]: 80% | % Haemolysis 150 μM [1]: 86% | % Haemolysis 250 μM [1]: 80% | range of concentrations including the MIC, E. amylovora [2]: >7.5 µM | range of concentrations including the MIC, P. syringae [3]: >7.5 µM | range of concentrations including the MIC, X. vesicatoria [4]: <2.5 µM

FKLFKKILKFL-NH2 [BP066]
% Haemolysis 50 μM [1]: 9% | % Haemolysis 150 μM [1]: 63% | % Haemolysis 250 μM [1]: 89% | range of concentrations including the MIC, E. amylovora [2]: 2.5 to 5 µM | range of concentrations including the MIC, P. syringae [3]: 5 to 7.5 µM | range of concentrations including the MIC, X. vesicatoria [4]: 2.5 to 5 µM

LKLFKKILKFL-NH2 [BP081]
% Haemolysis 50 μM [1]: 10% | % Haemolysis 150 μM [1]: 65% | % Haemolysis 250 μM [1]: 88% | range of concentrations including the MIC, E. amylovora [2]: 2.5 to 5 µM | range of concentrations including the MIC, P. syringae [3]: 2.5 to 5 µM | range of concentrations including the MIC, X. vesicatoria [4]: <2.5 µM

WKLFKKILKWL-NH2 [BP018]
% Haemolysis 50 μM [1]: 78% | % Haemolysis 150 μM [1]: 68% | % Haemolysis 250 μM [1]: 74% | range of concentrations including the MIC, E. amylovora [2]: 5 to 7.5 µM | range of concentrations including the MIC, P. syringae [3]: 5 to 7.5 µM | range of concentrations including the MIC, X. vesicatoria [4]: 2.5 µM

YKLFKKILKWL-NH2 [BP047]
% Haemolysis 50 μM [1]: 81% | % Haemolysis 150 μM [1]: 76% | % Haemolysis 250 μM [1]: 82% | range of concentrations including the MIC, E. amylovora [2]: 5 to 7.5 µM | range of concentrations including the MIC, P. syringae [3]: 5 to 7.5 µM | range of concentrations including the MIC, X. vesicatoria [4]: 2.5 to 5 µM

— US8026219B2, “Antimicrobial linear peptides” (Universitat de Girona, priority 2006, dated 2011)
